These results are taken from patent publication US10273240B2, “Cortistatin analogues, syntheses, and uses thereof” (President and Fellows of Harvard College, priority 2015, dated 2019).

What all share (assay type): cell-based
For assay [1], the system named is SKNO-1. In words: Cell growth assay, SKNO-1. The conditions noted are these: Homo sapiens. Here is the method:
(§1) All media was supplemented with 100 U/mL penicillin and 100 μg/mL streptomycin. Human cancer cell lines were grown in the following media: MV4; 11, K562, MOLM-14 in RPMI-1640, 10% FBS; SKNO-1 in RPMI-1640, 10% FBS, and 10 ng/mL GM-CSF; MV4;11 and K562 were from ATCC. SKNO-1 was from DSMZ.
(§2) Cell Culture. All media was supplemented with 100 U/mL penicillin and 100 μg/mL streptomycin. Human cancer cell lines were grown in the following media: MV4; 11, RS4; 11, K562, HEL, MOLM-14, MEG-01 in RPMI-1640, 10% FBS; SET-2 in RPMI-1640, 20% FBS; UKE-1 in RPMI-1640, 10% FBS, 10% horse serum and 1 μM hydrocortisone; SKNO-1 and TF-1 in RPMI-1640, 10% FBS, and 10 or 2 ng/mL GM-CSF, respectively; HaCaT in DMEM, 10% FBS; and HCT116 in McCoy's 5 A, 10% FBS (proliferation assay) or DMEM, 10% FBS (gene expression study). HepG2, MV4;11, RS4;11, MEG-01, TF-1, HCT116 and K562 were from ATCC. SKNO-1 was from DSMZ. HEL, UKE-1, and SET-2 were provided by Ross L. Levine and HaCaT, MV4;11-mCLP, and MOLM-14 by Van Wilson, Andrew L. Kung, and Scott A. Armstrong, respectively. MOLM-14 cells were authenticated by STR profiling and flow cytometry and all cell lines were routinely tested and found to be negative for mycoplasma.

In assay [2] the test system is MOLM-14. In words: Cell growth assay, MOLM-14. The conditions noted are these: Homo sapiens. Here is the method:
as §1, §2

In assay [3] the test system is MV4;11. The experiment in a line: Cell growth assay, MV4;11. The conditions noted are these: Homo sapiens. Here is the method:
as §1, §2

Assay [4] relates to K562. The experiment in a line: Cell growth assay, K562. The conditions noted are these: Homo sapiens. How it is done: as §1, §2
In assay [5] the test system is RS4;11. In words: Cell growth assay, RS4;11. Particulars: Homo sapiens, RS4-11, 72 h, read-out: Mean GI50 (nM), RS4;11. Here is the method: as §2
The subject of assay [6] is SET-2. In words: Cell growth assay, SET-2. Particulars: Homo sapiens, SET-2, 72 h, read-out: Mean GI50 (nM), SET-2. Here is the method:
as §2

Assay [7] concerns MEG-01. In words: Cell growth assay, MEG-01. The conditions noted are these: Homo sapiens, MEG-01, 72 h, read-out: Mean GI50 (nM), MEG-01. How it is done: as §2
Assay [8] relates to TF-1. The experiment in a line: Cell growth assay, TF-1. Particulars: Homo sapiens, TF-1, 72 h, read-out: Mean GI50 (nM), TF-1. Here is the method: as §2
In assay [9] the test system is HEL. The experiment in a line: Cell growth assay, HEL. The conditions noted are these: Homo sapiens, 72 h, read-out: Mean GI50 (nM), HEL. How it is done:
as §2

Like-named read-outs stand apart in the source and are kept apart here.

For the compound `C[C@]12CC=C3C=C4CCC(=O)NC[C@]45CC[C@]3(O5)[C@@H]1CC[C@@H]2c1ccc2ccncc2c1` [Compound 15B], the GI50 in assay [1] (SKNO-1, 240 h, read-out: SKNO-1 GI50 day 10) was 0.6 nM; in assay [2] (MOLM-14, 240 h, read-out: MOLM14 GI50 day 10), 17.5 nM; in assay [3] (MV4-11, 240 h, read-out: MV4;11 GI50 day 10), 3.75 nM; in assay [4] (K562, 240 h, read-out: K562 GI50 day 10), greater than 1000 nM.

As for `COc1cc2c(cc1-c1c(C)noc1C)ncc1[nH]c(=O)n([C@H](C)c3ccccn3)c12` [I-BET151], the GI50 came out at 50 nM in assay [1] (SKNO-1, 72 h, I-BET151, after 3 days, read-out: Mean GI50 (nM), SKNO-1); 18 nM in assay [2] (MOLM-14, 72 h, I-BET151, after 3 days, read-out: Mean GI50 (nM), MOLM-14); 20 nM in assay [3] (MV4-11, 72 h, I-BET151, after 3 days, read-out: Mean GI50 (nM), MV4;11); 750 nM in [4] (K562, 72 h, I-BET151, after 3 days, read-out: Mean GI50 (nM), K562); 200 nM in assay [5]; 245 nM in [6]. For the same compound, the GI50 in assay [7] worked out at 375 nM; in assay [8], 163 nM; in assay [9] it was 200 nM.
